The values that follow come from publication PMC6175296 (Clinical Pharmacology and Therapeutics, 2017).

Structures are written as SMILES. “Also recorded” adds a separate entry of the source. Like-named read-outs stand apart in the source and are kept apart here.

Series [1] is classed as in vivo, humans.
The conditions of series [2]: cited from earlier work.
The conditions of series [3]: cited from earlier work. This is another data set of the same source.
The conditions of series [4]: for AUC(0-inf): AUC0–∞; for tmax: median (range).
Series [5] relates to CYP2C8. The following applies: read-out: CYP2C8 Ki; microsomal protein concentration 0.25 mg/mL; cited from earlier work.
The conditions of series [6]: cited from earlier work. The source holds these as a separate data set.
For series [7], the target named is T1, CYP2C8 (Homo sapiens, UniProt P10632).
T1 sequence (P10632 1-490): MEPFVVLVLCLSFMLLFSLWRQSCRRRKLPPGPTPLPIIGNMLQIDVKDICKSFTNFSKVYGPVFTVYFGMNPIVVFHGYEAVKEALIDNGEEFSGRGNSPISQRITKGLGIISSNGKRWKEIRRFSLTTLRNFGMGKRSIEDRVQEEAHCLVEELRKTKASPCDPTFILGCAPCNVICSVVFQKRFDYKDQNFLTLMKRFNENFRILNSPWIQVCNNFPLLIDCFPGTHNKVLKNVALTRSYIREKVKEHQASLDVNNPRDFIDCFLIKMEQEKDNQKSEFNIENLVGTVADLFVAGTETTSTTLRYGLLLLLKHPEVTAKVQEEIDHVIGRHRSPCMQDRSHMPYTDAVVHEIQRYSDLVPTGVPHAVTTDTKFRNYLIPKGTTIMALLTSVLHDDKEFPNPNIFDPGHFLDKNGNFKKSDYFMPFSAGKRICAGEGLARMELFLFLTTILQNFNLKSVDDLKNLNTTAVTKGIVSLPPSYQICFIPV
As to the kind of experiment: In vivo CYP2C8 inhibition judged from montelukast pharmacokinetics. The following applies: montelukast as CYP2C8 probe substrate.

The next series relates to OATP1B1. The following applies: read-out: OATP1B1 Ki; “Clopidogrel 25” model; published value; cited from earlier work.
The mark [8] stands for this setting: after 60 mg prasugrel oral, day 1, median (range).
Where [9] appears, read: both, human, plasma, po, 300 mg.
Where [10] appears, read: after 300 mg clopidogrel oral, day 1, median (range).

Take `O=C(O)/C=C1/CN(C(C(=O)C2CC2)c2ccccc2F)CCC1S` (centres unmarked) [Prasugrel active metabolite (R‐138727)]: in series [1] (setting [8]), the AUC0-13h is given as 495 (249–1090) ng·h/mL, the Cmax is reported as 428 (210–865) ng/mL, the tmax is given as 0.92 (0.92–0.92) h and the t½ is recorded as 3.9 (3.2–5.5) h.
For the compound `O=C1C=C2CN(C(C(=O)C3CC3)c3ccccc3F)CCC2S1` (centres unmarked) [Prasugrel inactive metabolite (R‐95913)], in series [1] (setting [8]), the AUC0-13h was 495 (247–1140) ng·h/mL, the Cmax is listed as 240 (105–692) ng/mL, the tmax was 0.92 (0.92–1.5) h and the t½ was 7.1 (6.0–9.2) h.
What is called AUC(0-inf) is total exposure, with the tail of the curve extrapolated. High values mean high exposure, low ones low exposure. As usually defined, the half-life is the time in which the quantity being followed falls by half. A lower half-life goes with fast loss. The Ki is a measure of affinity in units of concentration, obtained from inhibition or displacement. For `CC(C)(O)c1ccccc1CC[C@@H](SCC1(CC(=O)O)CC1)c1cccc(/C=C/c2ccc3ccc(Cl)cc3n2)c1` [Montelukast], the “AUC increase by clarithromycin” value in series [2] is given as 2.4 fold. Further, in series [2], the “CYP2C8 inhibition in humans” value is reported as “not a significant inhibitor of CYP2C8”. Moreover, the “decrease in exposure by fluconazole” value in series [2] is 30–40%. Besides, the oral bioavailability in series [3] is given as 60–70%. For the same compound, the total exposure AUC(0-inf) in series [4] (both, human, plasma, oral, 10 mg, placebo phase, geometric mean (geometric CV)) was 3.02 µg·h/mL; in series [4] (both, human, plasma, oral, clopidogrel phase, geometric mean (geometric CV)), 5.99 µg·h/mL; in series [4] (both, human, plasma, oral, prasugrel phase, geometric mean (geometric CV)) it was 2.8 µg·h/mL. The tmax was 3.5 h in series [4] (both, human, plasma, oral, 10 mg, placebo phase); 4.5 h in series [4] (both, human, plasma, oral, clopidogrel phase); 3 h in series [4] (both, human, plasma, oral, prasugrel phase). The compound further gave a half-life in series [4] (both, human, plasma, oral, t½, clopidogrel phase, geometric mean (geometric CV)) of 8.2 h. Also, the t½ in series [4] (placebo phase, geometric mean (geometric CV)) is given as 4.51 (18) h; in series [4] (prasugrel phase, geometric mean (geometric CV)), 5.16 (20) h. The “prolongation in t½” value in series [4] (prasugrel phase vs placebo) worked out at 15%. Besides, the “t½ prolongation by prasugrel” value in series [4] (prasugrel phase vs placebo) is 1.15 fold. In the series with CYP2C8 [5], the Ki is […]. Besides, the “bound to plasma proteins” value in series [6] was “about 99.8%”.
By AUC(0-t) is commonly meant exposure summed from dosing to a finite time, without extrapolation to infinity. Take `COC(=O)[C@H](c1ccccc1Cl)N1CCc2sccc2C1` [Clopidogrel]: the “clinically relevant inhibition of CYP3A4 or OATP1B1” value in series [2] (pitavastatin and simvastatin as substrates) is given as “not a clinically relevant inhibitor of CYP3A4 or OATP1B1”. In series [1] (setting [9]), this compound showed an AUC(0-t) of 0.0132 µg·h/mL, a Cmax of 3.53 ng/mL, a half-life of 4.8 h and a tmax of 1.5 h. The “CYP2C8 inhibition in humans (conclusion)” value on CYP2C8 [7] is reported as “at least a moderate inhibitor of CYP2C8; also recorded: weaker CYP2C8 inhibitor than gemfibrozil”.
On to `O=C(O)[C@H]1O[C@@H](OC(=O)[C@H](c2ccccc2Cl)N2CCc3sccc3C2)[C@H](O)[C@@H](O)[C@@H]1O` [Clopidogrel acyl‐β‐D‐glucuronide], for which the Ki in the series with OATP1B1 is 5.45 µM. Also, in series [1] (setting [10]), the AUC0-13h was 16,200 (7,030–34,200) ng·h/mL, the Cmax is given as 3,290 (1,470–9,680) ng/mL, the tmax was 1.5 (0.92–3.0) h and the t½ is listed as 4.6 (3.9–6.6) h.
`O=C(O)[C@H](c1ccccc1Cl)N1CCc2sccc2C1` [Clopidogrel carboxylic acid]: in series [1] (setting [10]), the AUC0-13h was 38,500 (22,000–53,400) ng·h/mL, the Cmax was 11,500 (7,410–19,700) ng/mL, the tmax is 0.92 (0.92–1.5) h and the t½ is listed as 7.3 (5.8–9.2) h.
On to `CC(=O)Oc1cc2c(s1)CCN(C(C(=O)C1CC1)c1ccccc1F)C2` (centres unmarked) [Prasugrel], for which the “CYP2C8 inhibition in humans (conclusion)” value at CYP2C8 [7] is reported as “not a clinically relevant CYP2C8 inhibitor; also recorded: not a significant inhibitor of CYP2C8”.
In the case of `CCc1ccc(CCOc2ccc(CC3SC(=O)NC3=O)cc2)nc1` (centres unmarked) [Pioglitazone], in series [2] (previous studies), the “AUC increase by gemfibrozil” value is “about 3 fold”. In addition, the “AUC increase by clopidogrel” value in series [2] (previously reported) is listed as 2.0–2.1 fold.
On to `COC(=O)[C@H](c1ccccc1Cl)N1CC[C@@H](S)/C(=C\C(=O)O)C1` [Clopidogrel active metabolite], for which, in series [1] (setting [10]), the AUC0-13h is on record as 32.0 (17.0–101) ng·h/mL, the Cmax is recorded as 23.4 (12.6–80.1) ng/mL, the tmax was 0.92 (0.92–1.5) h and the t½ is listed as 3.4 (0.84–4.8) h.
